Measured values as given in ChEMBL document CHEMBL1145498, “A systematic interaction map of validated kinase inhibitors with Ser/Thr kinases” (Proc Natl Acad Sci U S A, 2007).

Assays:
[1] = target: T1, Serine/threonine-protein kinase VRK3 (Homo sapiens) (UniProt Q8IV63)
T1 sequence (whole entry): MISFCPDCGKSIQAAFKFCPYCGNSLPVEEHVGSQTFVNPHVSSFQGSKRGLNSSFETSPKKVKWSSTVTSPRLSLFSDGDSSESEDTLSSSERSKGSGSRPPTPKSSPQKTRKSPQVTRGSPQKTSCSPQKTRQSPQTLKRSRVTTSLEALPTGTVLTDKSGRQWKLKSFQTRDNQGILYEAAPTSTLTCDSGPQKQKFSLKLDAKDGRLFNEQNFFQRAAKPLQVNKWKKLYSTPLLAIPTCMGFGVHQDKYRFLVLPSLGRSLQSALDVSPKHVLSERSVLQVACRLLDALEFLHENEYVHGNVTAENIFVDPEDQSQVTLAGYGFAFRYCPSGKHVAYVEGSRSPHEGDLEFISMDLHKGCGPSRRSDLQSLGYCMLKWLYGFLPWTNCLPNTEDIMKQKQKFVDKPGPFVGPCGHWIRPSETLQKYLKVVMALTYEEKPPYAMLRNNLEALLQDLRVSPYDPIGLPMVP

[2] = target: Serine/threonine-protein kinase pim-2 (Homo sapiens, UniProt Q9P1W9)
[3] = target: Casein kinase I isoform gamma-3 (Homo sapiens) (UniProt Q9Y6M4)
[4] = target: T2, Serine/threonine-protein kinase 4 (Homo sapiens) (UniProt Q13043)
T2 sequence (whole entry): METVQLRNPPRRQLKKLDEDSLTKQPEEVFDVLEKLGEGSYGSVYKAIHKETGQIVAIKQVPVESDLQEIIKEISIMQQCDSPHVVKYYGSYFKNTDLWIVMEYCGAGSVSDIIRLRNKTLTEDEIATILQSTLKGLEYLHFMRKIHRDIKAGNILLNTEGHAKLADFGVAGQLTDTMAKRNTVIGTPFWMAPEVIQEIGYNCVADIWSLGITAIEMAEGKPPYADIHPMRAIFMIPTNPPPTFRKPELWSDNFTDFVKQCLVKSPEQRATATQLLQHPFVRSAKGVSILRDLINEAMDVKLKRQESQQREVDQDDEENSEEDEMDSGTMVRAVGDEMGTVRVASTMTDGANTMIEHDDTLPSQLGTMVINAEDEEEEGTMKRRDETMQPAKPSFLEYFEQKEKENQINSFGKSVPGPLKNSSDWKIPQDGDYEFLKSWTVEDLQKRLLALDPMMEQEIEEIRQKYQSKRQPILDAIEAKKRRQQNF

[5] = target: Calcium/calmodulin-dependent protein kinase type II subunit delta (Homo sapiens) (UniProt Q13557)
[6] = target: Serine/threonine-protein kinase PAK 4 (Homo sapiens) (UniProt O96013)
[7] = target: Serine/threonine-protein kinase PAK 5 (Homo sapiens) (UniProt Q9P286)
[8] = target: Cyclin-dependent kinase 16 (Homo sapiens) (UniProt Q00536)
[9] = target: T3, Myotonin-protein kinase (Homo sapiens) (UniProt Q09013)
T3 sequence (whole entry): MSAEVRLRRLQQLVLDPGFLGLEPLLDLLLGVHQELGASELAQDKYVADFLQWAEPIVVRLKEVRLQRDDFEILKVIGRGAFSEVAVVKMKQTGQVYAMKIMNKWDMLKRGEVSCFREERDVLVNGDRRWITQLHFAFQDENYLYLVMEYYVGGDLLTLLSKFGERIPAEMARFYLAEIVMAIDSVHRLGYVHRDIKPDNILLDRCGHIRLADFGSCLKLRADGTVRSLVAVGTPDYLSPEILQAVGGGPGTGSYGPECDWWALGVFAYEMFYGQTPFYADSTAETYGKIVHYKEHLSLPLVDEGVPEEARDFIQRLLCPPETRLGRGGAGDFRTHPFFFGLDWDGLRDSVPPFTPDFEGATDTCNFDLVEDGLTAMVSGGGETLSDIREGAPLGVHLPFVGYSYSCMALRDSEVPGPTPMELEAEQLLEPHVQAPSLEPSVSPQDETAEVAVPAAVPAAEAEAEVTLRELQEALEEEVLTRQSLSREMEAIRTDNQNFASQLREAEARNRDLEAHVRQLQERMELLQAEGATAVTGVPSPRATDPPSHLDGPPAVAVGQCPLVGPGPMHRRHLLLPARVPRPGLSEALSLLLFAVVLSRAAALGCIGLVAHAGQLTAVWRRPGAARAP

[10] = target: Calcium/calmodulin-dependent protein kinase kinase 2 (Homo sapiens, UniProt Q96RR4)
[11] = target: cAMP-dependent protein kinase catalytic subunit alpha (Homo sapiens) (UniProt P17612)
[12] = target: Serine/threonine-protein kinase PLK1 (Homo sapiens) (UniProt P53350)
[13] = target: Glycogen synthase kinase-3 beta (Homo sapiens, UniProt P49841)
[14] = target: Mitogen-activated protein kinase 11 (Homo sapiens, UniProt Q15759)
[15] = target: Dual specificity protein kinase CLK2 (Homo sapiens) (UniProt P49760)
[16] = target: T4, Serine/threonine-protein kinase VRK1 (Homo sapiens) (UniProt Q99986)
T4 sequence (whole entry): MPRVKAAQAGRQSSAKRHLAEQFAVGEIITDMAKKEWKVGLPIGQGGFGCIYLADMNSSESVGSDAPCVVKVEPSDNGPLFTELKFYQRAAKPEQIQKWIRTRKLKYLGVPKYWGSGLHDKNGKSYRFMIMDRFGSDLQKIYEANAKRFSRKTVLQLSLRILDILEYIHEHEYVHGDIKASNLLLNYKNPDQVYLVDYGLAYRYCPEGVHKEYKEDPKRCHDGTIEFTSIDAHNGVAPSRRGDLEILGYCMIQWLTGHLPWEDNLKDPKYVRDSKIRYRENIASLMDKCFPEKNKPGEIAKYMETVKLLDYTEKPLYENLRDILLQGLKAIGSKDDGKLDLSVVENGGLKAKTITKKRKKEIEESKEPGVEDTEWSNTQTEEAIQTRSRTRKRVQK

[17] = target: TRAF2 and NCK-interacting protein kinase (Homo sapiens) (UniProt Q9UKE5)
[18] = target: Serine/threonine-protein kinase VRK2 (Homo sapiens) (UniProt Q86Y07)
Serine/threonine-protein kinase VRK2 (Homo sapiens), sequence (Q86Y07 whole entry): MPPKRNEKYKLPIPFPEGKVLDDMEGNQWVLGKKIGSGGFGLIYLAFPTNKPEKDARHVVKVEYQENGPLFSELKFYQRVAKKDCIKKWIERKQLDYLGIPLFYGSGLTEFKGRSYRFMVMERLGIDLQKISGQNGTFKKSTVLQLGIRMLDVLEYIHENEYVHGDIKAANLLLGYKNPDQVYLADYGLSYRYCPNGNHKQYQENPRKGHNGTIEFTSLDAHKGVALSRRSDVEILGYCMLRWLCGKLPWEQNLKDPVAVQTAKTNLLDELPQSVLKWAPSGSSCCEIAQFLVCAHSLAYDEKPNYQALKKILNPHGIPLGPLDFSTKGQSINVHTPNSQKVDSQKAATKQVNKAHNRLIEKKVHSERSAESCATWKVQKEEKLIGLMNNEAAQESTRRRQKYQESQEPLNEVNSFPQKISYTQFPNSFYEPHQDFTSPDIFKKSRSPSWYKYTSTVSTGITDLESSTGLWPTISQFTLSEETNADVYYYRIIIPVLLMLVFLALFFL

Casein kinase I isoform gamma-3 (Homo sapiens), sequence (Q9Y6M4 whole entry, looked up, canonical isoform): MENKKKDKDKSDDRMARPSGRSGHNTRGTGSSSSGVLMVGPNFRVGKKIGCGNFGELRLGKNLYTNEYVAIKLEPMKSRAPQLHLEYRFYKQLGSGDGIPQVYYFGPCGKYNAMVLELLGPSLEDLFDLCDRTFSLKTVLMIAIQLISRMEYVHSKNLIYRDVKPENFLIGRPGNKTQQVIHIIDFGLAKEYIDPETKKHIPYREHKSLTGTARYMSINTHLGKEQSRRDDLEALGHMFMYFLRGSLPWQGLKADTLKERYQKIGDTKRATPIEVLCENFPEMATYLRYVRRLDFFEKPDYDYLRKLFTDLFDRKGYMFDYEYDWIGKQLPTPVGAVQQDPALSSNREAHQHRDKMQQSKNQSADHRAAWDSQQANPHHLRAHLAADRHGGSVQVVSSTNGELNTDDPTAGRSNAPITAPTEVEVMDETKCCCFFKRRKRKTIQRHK
Calcium/calmodulin-dependent protein kinase kinase 2, sequence (Q96RR4 2-588 limits assumed): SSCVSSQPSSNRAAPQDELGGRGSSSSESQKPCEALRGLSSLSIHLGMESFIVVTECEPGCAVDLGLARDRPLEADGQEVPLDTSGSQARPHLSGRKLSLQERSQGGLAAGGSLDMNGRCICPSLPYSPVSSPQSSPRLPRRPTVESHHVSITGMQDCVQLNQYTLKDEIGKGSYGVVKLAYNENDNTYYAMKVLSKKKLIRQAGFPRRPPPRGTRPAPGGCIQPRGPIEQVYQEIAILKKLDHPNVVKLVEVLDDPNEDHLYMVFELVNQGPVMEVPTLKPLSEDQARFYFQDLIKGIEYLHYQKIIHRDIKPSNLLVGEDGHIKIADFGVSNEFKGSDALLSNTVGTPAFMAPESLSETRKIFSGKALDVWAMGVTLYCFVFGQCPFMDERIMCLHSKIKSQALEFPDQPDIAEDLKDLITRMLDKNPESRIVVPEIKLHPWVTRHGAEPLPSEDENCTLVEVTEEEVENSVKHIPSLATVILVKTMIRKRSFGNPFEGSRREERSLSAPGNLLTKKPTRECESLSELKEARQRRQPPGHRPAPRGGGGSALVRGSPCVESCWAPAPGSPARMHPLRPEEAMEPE
Glycogen synthase kinase-3 beta, sequence (P49841 whole entry, looked up): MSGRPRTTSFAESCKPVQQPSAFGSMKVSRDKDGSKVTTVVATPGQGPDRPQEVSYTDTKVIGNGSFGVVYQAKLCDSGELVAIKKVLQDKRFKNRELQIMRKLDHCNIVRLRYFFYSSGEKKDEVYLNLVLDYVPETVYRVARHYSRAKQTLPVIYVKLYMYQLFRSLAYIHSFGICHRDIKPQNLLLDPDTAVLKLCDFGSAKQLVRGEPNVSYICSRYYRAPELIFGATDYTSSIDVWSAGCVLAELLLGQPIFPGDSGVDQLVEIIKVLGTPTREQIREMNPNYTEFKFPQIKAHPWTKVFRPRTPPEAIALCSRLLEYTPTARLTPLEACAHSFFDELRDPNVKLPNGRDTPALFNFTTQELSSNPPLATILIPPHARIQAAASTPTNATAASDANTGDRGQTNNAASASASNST
Cyclin-dependent kinase 16 (Homo sapiens), sequence (Q00536 whole entry): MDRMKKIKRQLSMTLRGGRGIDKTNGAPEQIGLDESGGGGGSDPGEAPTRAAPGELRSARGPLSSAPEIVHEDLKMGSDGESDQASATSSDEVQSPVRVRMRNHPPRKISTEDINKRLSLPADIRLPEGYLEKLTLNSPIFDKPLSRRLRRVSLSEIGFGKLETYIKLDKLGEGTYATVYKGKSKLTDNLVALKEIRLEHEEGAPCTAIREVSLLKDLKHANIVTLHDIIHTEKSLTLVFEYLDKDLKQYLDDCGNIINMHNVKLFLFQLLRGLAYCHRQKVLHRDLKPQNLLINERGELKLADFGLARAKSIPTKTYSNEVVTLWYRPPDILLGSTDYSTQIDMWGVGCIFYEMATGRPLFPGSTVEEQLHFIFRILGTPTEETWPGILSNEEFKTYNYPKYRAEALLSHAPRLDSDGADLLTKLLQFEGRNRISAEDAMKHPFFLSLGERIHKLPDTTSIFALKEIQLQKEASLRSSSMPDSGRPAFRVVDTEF
Serine/threonine-protein kinase pim-2, sequence (Q9P1W9 whole entry, looked up, canonical isoform): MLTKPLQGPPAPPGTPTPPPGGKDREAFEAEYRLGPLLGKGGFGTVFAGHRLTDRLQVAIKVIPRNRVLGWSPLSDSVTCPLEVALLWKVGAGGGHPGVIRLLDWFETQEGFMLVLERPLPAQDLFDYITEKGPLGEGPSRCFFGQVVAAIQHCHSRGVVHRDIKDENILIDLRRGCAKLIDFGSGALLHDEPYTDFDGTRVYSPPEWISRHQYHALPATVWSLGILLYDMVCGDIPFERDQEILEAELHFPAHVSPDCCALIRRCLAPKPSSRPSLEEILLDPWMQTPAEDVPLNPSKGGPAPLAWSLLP
Serine/threonine-protein kinase PAK 4 (Homo sapiens), sequence (O96013 whole entry, looked up): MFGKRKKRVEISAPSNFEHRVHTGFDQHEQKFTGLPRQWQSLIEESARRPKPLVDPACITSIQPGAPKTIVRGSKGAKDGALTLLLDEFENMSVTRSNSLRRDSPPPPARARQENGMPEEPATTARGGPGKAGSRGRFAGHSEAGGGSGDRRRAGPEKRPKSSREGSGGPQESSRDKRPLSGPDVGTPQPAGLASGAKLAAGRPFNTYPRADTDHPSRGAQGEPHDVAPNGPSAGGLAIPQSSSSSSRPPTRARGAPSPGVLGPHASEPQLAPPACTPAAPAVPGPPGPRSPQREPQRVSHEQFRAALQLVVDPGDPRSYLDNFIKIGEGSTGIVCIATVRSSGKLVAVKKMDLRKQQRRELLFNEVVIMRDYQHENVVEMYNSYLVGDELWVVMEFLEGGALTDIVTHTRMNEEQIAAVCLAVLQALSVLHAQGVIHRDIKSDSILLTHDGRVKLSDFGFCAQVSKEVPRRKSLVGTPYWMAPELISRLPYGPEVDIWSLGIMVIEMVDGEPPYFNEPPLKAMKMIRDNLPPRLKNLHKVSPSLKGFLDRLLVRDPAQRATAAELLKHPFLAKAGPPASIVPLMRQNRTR
Serine/threonine-protein kinase PAK 5 (Homo sapiens), sequence (Q9P286 whole entry, looked up): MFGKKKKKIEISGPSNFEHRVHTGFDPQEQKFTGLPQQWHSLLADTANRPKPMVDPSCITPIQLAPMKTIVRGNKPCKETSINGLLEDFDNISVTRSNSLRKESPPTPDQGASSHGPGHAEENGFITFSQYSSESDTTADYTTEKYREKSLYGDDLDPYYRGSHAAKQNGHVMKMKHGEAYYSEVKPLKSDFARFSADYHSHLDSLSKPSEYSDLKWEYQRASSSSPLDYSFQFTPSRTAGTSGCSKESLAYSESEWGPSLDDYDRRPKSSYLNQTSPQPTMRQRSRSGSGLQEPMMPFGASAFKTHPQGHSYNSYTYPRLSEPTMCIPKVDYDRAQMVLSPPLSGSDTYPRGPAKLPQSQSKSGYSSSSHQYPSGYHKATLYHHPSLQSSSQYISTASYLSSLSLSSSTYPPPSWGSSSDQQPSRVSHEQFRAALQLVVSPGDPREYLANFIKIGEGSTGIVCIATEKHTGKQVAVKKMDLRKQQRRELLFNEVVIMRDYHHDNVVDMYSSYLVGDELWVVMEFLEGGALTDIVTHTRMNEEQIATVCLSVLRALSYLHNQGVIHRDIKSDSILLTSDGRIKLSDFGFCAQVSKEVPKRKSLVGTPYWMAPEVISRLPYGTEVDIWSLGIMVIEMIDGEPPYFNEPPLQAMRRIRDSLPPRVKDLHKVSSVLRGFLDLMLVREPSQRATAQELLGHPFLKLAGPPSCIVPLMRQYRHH
Serine/threonine-protein kinase PLK1 (Homo sapiens), sequence (P53350 whole entry): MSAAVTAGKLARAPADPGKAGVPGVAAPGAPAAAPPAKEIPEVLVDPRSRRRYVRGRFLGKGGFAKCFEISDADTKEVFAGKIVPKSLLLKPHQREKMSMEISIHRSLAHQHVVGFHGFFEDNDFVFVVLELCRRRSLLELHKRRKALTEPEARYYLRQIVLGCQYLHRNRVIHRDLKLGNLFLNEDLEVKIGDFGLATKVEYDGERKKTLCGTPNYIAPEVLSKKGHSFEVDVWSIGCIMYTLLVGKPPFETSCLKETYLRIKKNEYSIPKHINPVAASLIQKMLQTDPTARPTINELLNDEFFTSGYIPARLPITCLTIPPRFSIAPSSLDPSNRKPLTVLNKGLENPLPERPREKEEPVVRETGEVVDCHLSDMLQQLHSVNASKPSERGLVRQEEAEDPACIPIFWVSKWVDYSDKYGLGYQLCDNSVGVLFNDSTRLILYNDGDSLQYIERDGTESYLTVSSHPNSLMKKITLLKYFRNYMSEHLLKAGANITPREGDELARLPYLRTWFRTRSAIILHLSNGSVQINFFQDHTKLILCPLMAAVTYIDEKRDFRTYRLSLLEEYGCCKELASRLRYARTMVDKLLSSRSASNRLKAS

Row | Structure (SMILES) | ΔTm [1] | ΔTm [2] | ΔTm [3] | ΔTm [4] | ΔTm [5] | ΔTm [6] | ΔTm [7] | ΔTm [8] | ΔTm [9] | ΔTm [10] | ΔTm [11] | ΔTm [12] | ΔTm [13] | ΔTm [14] | ΔTm [15] | ΔTm [16] | ΔTm [17] | ΔTm [18]
1 | O=c1c(O)c(-c2ccc(O)c(O)c2)oc2cc(O)cc(O)c12 [QUERCETIN] | -0.2 °C | 8.6 °C | 2.9 °C | 5.4 °C | 2.7 °C | 2.3 °C | 0.5 °C | 1.8 °C | 3 °C | 5.5 °C | 4.2 °C | 1.7 °C | 7.8 °C | 2.2 °C | 4.9 °C | 1.4 °C | 3.3 °C | 2.7 °C
2 | COc1cc(C[C@H]2C(=O)OC[C@@H]2Cc2ccc(OC)c(OC)c2)ccc1O [ARCTIGENIN] | 0.4 °C | 0 °C | 0.2 °C | 0.8 °C | 0.2 °C | 0.8 °C | 0.1 °C | -0.1 °C | 1.4 °C | -0.9 °C | 0.2 °C | 0.1 °C | -0.2 °C | -0.2 °C | -0.1 °C | 0.7 °C | -0.2 °C | 0.5 °C
3 | O=C1NC(=O)c2c1c1c3ccccc3n3c1c1c2c2ccccc2n1C1CCC3O1 | 0 °C | 5.5 °C | 0.3 °C | 4.7 °C | -0.2 °C | 2.8 °C | 2.4 °C | 0.3 °C | 6.8 °C | -0.3 °C | 0.3 °C | 4 °C | -0.2 °C | -0.1 °C | 1.7 °C | -0.1 °C | 7.6 °C | 0.1 °C
4 | O=C1C(Cl)=C(N2C(=O)CCC2=O)C(=O)c2ccccc21 | -0.7 °C | -4.1 °C | 0.1 °C | -0.8 °C | -1.5 °C | -0.4 °C | -1.3 °C | 0.4 °C | -0.9 °C | -2.5 °C | -0.2 °C | -0.2 °C | -3.5 °C | 8.6 °C | -1.3 °C | -0.6 °C | -2.4 °C | -0.3 °C
5 | CC[C@H](CO)Nc1nc(NCc2ccccc2)c2ncn(C(C)C)c2n1 [SELICICLIB] | 0.6 °C | 0.3 °C | – | 0.3 °C | 0.1 °C | 1.7 °C | 0.6 °C | – | -0.7 °C | 0.3 °C | 0.2 °C | 1 °C | 0.4 °C | 1 °C | 2.3 °C | 0 °C | 0.4 °C | 2.1 °C
6 | COc1nccc(-c2c(-c3ccc(F)cc3)ncn2[C@H]2CC[C@H](O)CC2)n1 | -0.1 °C | 0.5 °C | 1.2 °C | 6.1 °C | 0.4 °C | 0.7 °C | 0.1 °C | 0.6 °C | – | -0.6 °C | -0.8 °C | -0.2 °C | 0.4 °C | 6.6 °C | 0.8 °C | 1.2 °C | -0.5 °C | 0.8 °C
7 | CCN1/C(=C/C(C)=O)Sc2ccc(OC)cc21 | 0.1 °C | 3.1 °C | – | 0.1 °C | -0.6 °C | 0.9 °C | 0 °C | -0.5 °C | 2.5 °C | 0.4 °C | -0.5 °C | 0.3 °C | 1.4 °C | -0.1 °C | 4.1 °C | 0.3 °C | 0.1 °C | 0.4 °C
8 | CN(C)C[C@@H]1CCn2cc(c3ccccc32)C2=C(C(=O)NC2=O)c2cn(c3ccccc23)CCO1 [RUBOXISTAURIN] | -0.3 °C | 2.1 °C | 0.5 °C | 0.6 °C | – | – | 0.9 °C | – | 5.3 °C | 1.6 °C | – | -0.9 °C | 5.9 °C | 0.3 °C | 4.2 °C | 0.8 °C | -0.3 °C | 1 °C
